Results from article PMC10499324, “The differing effects of a dual acting regulator on SIRT1” (Frontiers in Molecular Biosciences, 2023).
Values joined by “and” are separate entries in the source; they are usually repeats but may differ in a detail not shown here. Equal entries are not always repeated. Where no end group is shown, it is not given here.

How the values were obtained:
hSIRT1-143 [1] = biological target: T1, hSIRT1-143 (Homo sapiens, UniProt Q96EB6); assay: Differential scanning fluorimetry (SYPRO Orange) thermal stability of SIRT1 complexes; format: binding; settings: SIRT1•ADPr•Ac-H3; 200 μM resveratrol; single data set
T1 construct: Schematic of SIRT1-143 design, consisting of residues 143–512 and the region 641–665; SUMO (smt3) (N, cleaved yes); His tag (N, cleaved yes); made in house; host or cells: E. coli BL21 (DE3)
T1 sequence (Q96EB6 143-512 limits assumed): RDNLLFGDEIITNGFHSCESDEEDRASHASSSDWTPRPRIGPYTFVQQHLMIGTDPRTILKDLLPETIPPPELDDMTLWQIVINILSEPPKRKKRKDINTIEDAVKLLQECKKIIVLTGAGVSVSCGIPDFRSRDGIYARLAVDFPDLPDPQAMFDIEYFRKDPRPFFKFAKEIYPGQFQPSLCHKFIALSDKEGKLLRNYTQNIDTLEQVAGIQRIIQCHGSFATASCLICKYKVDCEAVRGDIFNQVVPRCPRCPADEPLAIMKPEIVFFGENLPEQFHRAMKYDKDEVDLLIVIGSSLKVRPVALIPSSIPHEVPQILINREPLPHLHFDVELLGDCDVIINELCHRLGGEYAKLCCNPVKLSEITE
T1 sequence (Q96EB6 641-665 limits assumed): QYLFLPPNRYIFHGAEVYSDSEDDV

hSIRT1-143 [2] = biological target: T1, hSIRT1-143; assay: Enzyme-coupled continuous SIRT1 deacetylase kinetics assay (Michaelis-Menten); format: biochemical; settings: for K M / k cat / k cat/K M: peptide as substrate, without resveratrol
Experimental: Assays were conducted in accordance with a prior publication ([Smith et al., 2009]). Peptide substrates were 11 or 13-mer peptides with acetylated lysine at the middle residue position, synthesized and purified by Elim BioPharm (Hayward, CA) to a purity of 90%. The following reagents were used in the assay mixtures: 5–640 μM peptide substrate, 640 μM NAD^+, 2 mM MPB-PncA (nicotinamidase), 20 mM phosphate buffer pH 7.6, 3 mM α-ketoglutarate, 1 mM DTT, 0.2 mM NADPH, and 6.7 units of glutamate dehydrogenase. Then, 0.2–1 μM of the SIRT1 enzyme was added to start the reactions. SIRT1 reactions were conducted in a transparent, flat-bottomed, 96-well plate with a final volume of 150 μL per well and read with a BioTek™ Synergy HTX Multimode Reader. […] After SIRT1 was added, absorbance at 340 nm was measured to quantify the rate of NADPH depletion for a duration of 10 min. Initial rates of the reaction were calculated using 6.22 mM^-1cm^-1 as the extinction coefficient for NADPH and fitting the slope of the linear component of the reaction. The initial velocity of the reaction absent the peptide substrate, which served as a background control, was subtracted from the initial velocities of all other reactions. By fitting the initial rate data to the Michaelis-Menten equation in GraphPad Prism, the values for k cat and K M were obtained.

hSIRT1-143 [3] = biological target: T1, hSIRT1-143; assay: Small angle X-ray scattering (SAXS) of SIRT1 complexes; settings: for Rg / Rxs: + 200 μM resveratrol; for Δ Rg / Δ Rxs: + vs - 200 μM resveratrol; for Rg: values in Å; for Rxs: values in Å
Experimental: SAXS samples were prepared with 40 μM of hSIRT1-143 in storage buffer (50 mM Tris pH 8.0, 150 mM NaCl, 1 mM DTT). All samples contained 640 μM of NAD^+ analog ADPr (adenosine diphosphate ribose) except for the apo SIRT1 sample. Varying concentrations of different peptide substrates (500–5,000 μM) were added to the different samples. The concentration of peptide substrate added was determined based on previous kinetics assays to ensure that SIRT1 is mostly saturated with the peptide.
With an X-ray wavelength of 1.216 Å and a sample-to-detector distance of 2070 mm, the scattering vector, q, varied from 0.01 to 0.45. Where 2θ is the scattering angle, the scattering vector is defined as q = 4π sin θ/λ. The experiments were conducted at a temperature of 20°C. The sample was placed for 10 s with the detector framing at 0.3 s to optimize the signal using the SAXS FrameSlice program (https://bl1231.als.lbl.gov/ran). ATSAS 3.0 Primus software was utilized to plot and analyze the combined SAXS ([Manalastas-Cantos et al., 2021]).

hSIRT1-143 [4] = biological target: T1, hSIRT1-143; assay: Differential scanning fluorimetry (SYPRO Orange) thermal stability of SIRT1 complexes; format: binding; settings: 200 μM resveratrol
Experimental: Differential Scanning Fluorimetry experiments were performed in a 384-well plate using a qTOWER real-time PCR thermal cycler (Analytik Jena). Fluorescence intensity was measured in the TAMRA channel (Ex: 535 nm Em: 580 nm) over a period of 1 h with a 1°C increase temperature ramp per cycle in “Normal” mode. […] 1:100 SYPRO® Orange (Millipore) dye diluted in buffer was also added to each well. All measurements were performed in triplicate, with buffer-only controls containing ADPr, resveratrol, and peptide performed for all conditions. Tma was calculated using the first derivative method and fitting a Lorentzian distribution to the first derivative curve (Tma = center of curve/inflection point) in GraphPad Prism ([Wu et al., 2020]).

[5] = towards Ac-p53W, 200 μM resveratrol

Compound: Oc1ccc(/C=C/c2cc(O)cc(O)c2)cc1 [resveratrol]
- Tma + res (hSIRT1-143 [1]): 46.3 ± 0.55 °C
- increases in K M (hSIRT1-143 [2]; towards Ac-p53, Ac-H4, Ac-H3 and Ac-CSNK, 200 μM resveratrol): 2-6 fold
- decrease in K M (hSIRT1-143 [2]; [5]): 2 fold
- increase of overall SIRT1 activity (k cat/K M) (hSIRT1-143 [2]; [5]): 2 fold
- effect on k cat values (hSIRT1-143 [2]; towards any of the peptide substrates, 200 μM resveratrol): did not have significant effects
- Rg (hSIRT1-143 [3]; SIRT1•ADPr): 35.45 Å
- Rxs (hSIRT1-143 [3]; SIRT1•ADPr): 14.19 Å
- Δ Rg (hSIRT1-143 [3]; SIRT1•ADPr): 1.7%
- Δ Rxs (hSIRT1-143 [3]; SIRT1•ADPr): 39.9%
- Rg (hSIRT1-143 [3]; SIRT1•ADPr•Ac-CSNK): 33.87 Å
- Rxs (hSIRT1-143 [3]; SIRT1•ADPr•Ac-CSNK): 12.67 Å
- Δ Rg (hSIRT1-143 [3]; SIRT1•ADPr•Ac-CSNK): 4.9%
- Rg (hSIRT1-143 [3]; SIRT1•ADPr•Ac-H3): 35.94 Å
- Rxs (hSIRT1-143 [3]; SIRT1•ADPr•Ac-H3): 12.42 Å
- Δ Rg (hSIRT1-143 [3]; SIRT1•ADPr•Ac-H3): 3.1%
- Rg (hSIRT1-143 [3]; SIRT1•ADPr•Ac-H4): 36.99 Å
- Rxs (hSIRT1-143 [3]; SIRT1•ADPr•Ac-H4): 13.7 Å
- Δ Rg (hSIRT1-143 [3]; SIRT1•ADPr•Ac-H4): 7.3%
- Rg (hSIRT1-143 [3]; SIRT1•ADPr•Ac-p53): 34.92 Å
- Rxs (hSIRT1-143 [3]; SIRT1•ADPr•Ac-p53): 14.37 Å
- Δ Rg (hSIRT1-143 [3]; SIRT1•ADPr•Ac-p53): 9.2%
- Rg (hSIRT1-143 [3]; SIRT1•ADPr•Ac-p53W): 36.91 Å
- Rxs (hSIRT1-143 [3]; SIRT1•ADPr•Ac-p53W): 13.86 Å
- Δ Rg (hSIRT1-143 [3]; SIRT1•ADPr•Ac-p53W): 9% and 8.9%
- Δ Rxs (hSIRT1-143 [3]; SIRT1•ADPr•Ac-p53W): 7% and 6.9%
- Rg (hSIRT1-143 [3]; apo SIRT1): 32.26 Å
- Rxs (hSIRT1-143 [3]; apo SIRT1): 11.26 Å
- Δ Rg (hSIRT1-143 [3]; apo SIRT1): 6.3%
- Δ Rxs (hSIRT1-143 [3]; apo SIRT1): 9.7%
- decrease of Tma (hSIRT1-143 [4]; SIRT1 in complex with ADPr): 0.2 °C
- decrease of melting temperature (hSIRT1-143 [4]; SIRT1•ADPR•Ac-p53W complex): 1 °C
- Tma + res (hSIRT1-143 [4]; SIRT1•ADPr): 49.9 ± 0.44 °C
- Tma + res (hSIRT1-143 [4]; SIRT1•ADPr•Ac-CSNK): 46.0 ± 0.94 °C
- Tma + res (hSIRT1-143 [4]; SIRT1•ADPr•Ac-H4): 46.5 ± 1.49 °C
- Tma + res (hSIRT1-143 [4]; SIRT1•ADPr•Ac-p53): 48.2 ± 0.54 °C
- Tma + res (hSIRT1-143 [4]; SIRT1•ADPr•Ac-p53W): 49.5 ± 0.46 °C
- Tma + res (hSIRT1-143 [4]; apo SIRT1): 49.4 ± 0.48 °C
- decrease of Tma (hSIRT1-143 [4]; apo SIRT1): 1.7 °C

Compound: ^2ASSSGSK^AcAEFIVG^14 (ASSSGSK(Ac)AEFIVG; UniProt P48729 2-14, looked up, fragment) [Ac-CSNK, 13-mer SIRT1 peptide substrate with acetylated lysine, casein kinase 1 alpha 1 (K8)]
- K M (hSIRT1-143 [2]): 78 ± 2.2 µM
- k cat (hSIRT1-143 [2]): 0.06 ± 0.002 s⁻¹
- k cat/K M (hSIRT1-143 [2]): 0.0007 ± 0.0002 µM⁻¹ s⁻¹

Compound: ^3VRGKAGK^AcGLGKGG^15 [Ac-H4]
- K M (hSIRT1-143 [2]): 108 ± 5.5 µM
- k cat (hSIRT1-143 [2]): 0.09 ± 0.006 s⁻¹
- k cat/K M (hSIRT1-143 [2]): 0.001 ± 0.0004 µM⁻¹ s⁻¹

Compound: ^9KSTGGK^AcAPRKQ^19 [Ac-H3]
- K M (hSIRT1-143 [2]): 121 ± 12.6 µM
- k cat (hSIRT1-143 [2]): 0.06 ± 0.009 s⁻¹
- k cat/K M (hSIRT1-143 [2]): 0.0005 ± 0.0003 µM⁻¹ s⁻¹

Compound: ^376STSRHKK^AcLMFKTE^388 (STSRHKK(Ac)LMFKTE; UniProt P04637 376-388, looked up, fragment) [Ac-p53, 13-mer SIRT1 peptide substrate with acetylated lysine, p53(K382)]
- K M (hSIRT1-143 [2]): 25 ± 0.2 µM
- k cat (hSIRT1-143 [2]): 0.08 ± 0.009 s⁻¹
- k cat/K M (hSIRT1-143 [2]): 0.003 ± 0.00003 µM⁻¹ s⁻¹

Compound: ^376STSRHKK^AcWMFKTE^389 [Ac-p53W]
- K M (hSIRT1-143 [2]): 13 ± 1.4 µM
- k cat (hSIRT1-143 [2]): 0.06 ± 0.001 s⁻¹
- k cat/K M (hSIRT1-143 [2]): 0.005 ± 0.0005 µM⁻¹ s⁻¹
